Experimental data taken from publication PMC8121762, “Peptidomics of enteroendocrine cells and characterisation of potential effects of a novel preprogastrin derived-peptide on glucose tolerance in lean mice” (Peptides, 2021).
Where a SMILES comes first, the peptide text is derived from it. [ ]: non-standard residue; d: D form. pGlu = O=C1CC[C@@H](C(=O)O)N1

Tests used:
[1] = test system: primary mouse islets; assay: Islet secretion studies; type: cell-based; conditions: 100 nM peptide, 1 or 16.7 mM glucose, 45 min at 37 °C, LC–MS/MS, n = 9 per group, Mann-Whitney U test
Method: Mice were culled by cervical dislocation and the pancreas inflated by […] injection of a 0.75 mg/mL collagenase V (Sigma-Aldrich) solution in HBSS before removal of the pancreas. The pancreas was incubated at 37 °C for 12 min to liberate islets. The digested tissue was washed in HBSS with 0.1 % BSA before islets were hand-picked under a light microscope. Islets were rested for 1 h by incubating at 37 °C in Krebs’s ringer buffer (KRB, 129 mM NaCl, 2 mM NaHCO3, 4.8 mM KCl, 1.2 mM KH2PO4, 2.5 mM CaCl2, 1.2 mM MgSO4, 10 mM HEPES and adjusted to pH 7.4 with 1 M NaOH.) with 0.1 % BSA and 5.5 mM glucose. Ten size matched islets were then transferred to a 2 mL protein LoBind Eppendorf tubes for 45 min at 37 °C with KRB + 0.001% BSA + one of the following: 1 mM glucose, 16.7 mM glucose, 1 mM glucose + 100 nM Gast p59−79 or 16.7 mM glucose + 100 nM Gast p59−79. At the end of the incubation the supernatant was removed and snap frozen. On the day of analysis all supernatants were defrosted, acidified with 30 μL of 1% FA (aq) (v/v) and extracted with SPE.
Peptides were quantified on as in section 2.8.3. Table 2 details the peptides quantified as well as their product ions, precursor ions, collision energies and dwell times.
Fig. 9 Effect of Gast p59-79 on glucagon (A), insulin-1 (B) and SST-14 (C) secretion from isolated mouse islets. Data represents n = 9 per group. Statistical analysis was performed using a Mann-Whitney U test. Data expressed as peak area normalised to islet number.

[2] = test system: phosphorylated-AKT (pAKT); assay: Post-mortem assessment of insulin sensitivity (pAKT / total-AKT, MSD kits); type: in vivo, mouse; conditions: DIO mice, 28 days after pump surgery, 15 min after 0.75 U/kg insulin challenge; treatment vs vehicle
Method: At the end of the 3rd osmotic pump study, mice were given a 0.75 U/kg insulin challenge and culled after 15 min. The liver, white adipose tissue (WAT) and skeletal muscle were dissected out and snap frozen in liquid nitrogen and stored at −70 °C until analysis.
50−100 mg pieces of WAT, liver and skeletal muscle were homogenised in MSD (Rockville, MD, USA) lysis buffer with various protease inhibitors supplied by MSD and Qiagen metal bead. Homogenised tissue was allowed to rest at 4 °C for 2 h to allow protein solubilisation and then centrifuged (10 000 g, 10 min, 4 °C). Supernatants were aspirated and stored at -70 °C till analysis. Protein content of all homogenised tissue samples was assessed using a Pierce BCA protein assay kit (Thermo Fisher Scientific) according to the manufacturer’s instructions.
Tissue homogenates were diluted in MSD lysis buffer to the same protein content. Total and phosphorylated-AKT (pAKT) were quantified using respective kits from MSD (total-AKT kit catalogue number: K150MOD-1, pAKT (Ser473) kit catalogue number: K151CAD-1) according to the manufacturer’s instructions.
Fig. 8 Phosphorylated-AKT (pAKT) expressed as a percentage of total AKT in liver (A), skeletal muscle (B) and white adipose tissue (WAT) (C) 15 min after a 0.75 U/kg insulin challenge. (D) Body weights vs pAKT as a percentage of total-AKT. […]

Q: With `CC[C@H](C)[C@H](NC(=O)[C@H](Cc1ccccc1)NC(=O)[C@H](Cc1c[nH]cn1)NC(=O)[C@H](CCC(N)=O)NC(=O)[C@@H]1CCCN1C(=O)CNC(=O)[C@H](CCC(N)=O)NC(=O)[C@@H]1CCCN1C(=O)CNC(=O)[C@H](CC(C)C)NC(=O)[C@@H]1CCC(=O)N1)C(=O)N[C@@H](C)C(=O)N[C@@H](CC(=O)O)C(=O)N[C@@H](CC(C)C)C(=O)N[C@@H](CO)C(=O)N[C@@H](CCCCN)C(=O)N[C@@H](CCCCN)C(=O)N[C@@H](CCC(N)=O)C(=O)N[C@@H](CCCNC(=N)N)C(=O)N1CCC[C@H]1C(=O)N[C@@H](CCCNC(=N)N)C(=O)O` [Gast p59−79] ([pGlu]LGPQGPQHFIADLSKKQRPR-OH; C-terminus assumed) as the molecule, how does the “SST-14 secretion from isolated islets” value [1] read?
A: The value was “No significant effect”.

Q: And the “glucagon secretion from isolated islets” value [1]?
A: The value was “No significant effect”.

Q: What about the “insulin-1 secretion from isolated islets” value [1] of the same molecule?
A: Its value is “No significant effect”.

Q: What about the “percentage of pAKT (of total AKT) in liver, WAT and skeletal muscle” value [2] of the same molecule?
A: The value was “No effect”.
